Source: patent US4487965A, “Trans-3-(4'-tert.-Butylcyclohex-1'yl)-2-methyl-1-dialkylaminopropanes, their preparation and their use as drugs” (BASF Aktiengesellschaft, priority 1982, dated 1984)

Columns and labels:
[1] = tested on: Trichophyton mentagrophytes; assay: guinea pig trichophytosis model, external application; assay type: in vivo; details: externally once daily
Method: Furthermore, the novel compounds were tested in the guinea pig trichophyt is model (Trichophyton mentagrophytes; cf. Heffter-Heubner: Handbuch der experimentellen Pharmakologie, Volume XVI/11A, Springer Verlag, Berlin, Heidelberg, New York, 1967), in which the compounds were applied externally in the form of 0.2, 0.5 and 1% strength suspensions. Application was effected once daily for 4 and 7 days respectively. After the 4th and 7th day of treatment, and 7 days after the last treatment, hairs or scales were pulled off at from 3 to 5 points in the infected area in each animal, and were incubated in Sabourand dextrose bouillon.
Evaluation was carried out by monitoring fungal growth after incubation for 8 days.

[2] = tested on: Epidermophyton floccosum ATCC 10227; assay: in vitro antimicrobial activity, agar dilution test (minimum inhibitory concentrations); assay type: cell-based
Method: (§1) The in vitro antimicrobial activity against microorganisms was determined in the agar dilution test (P. Klein, loc. cit.).

[3] = tested on: Mikrosporon ferrugineum CBS 317.31; assay: as above; assay type: cell-based
Method: as §1

[4] = tested on: Candida albicans ATCC 14052; assay: as above; assay type: cell-based
Method: as §1

[5] = tested on: Trichophyton mentagroph. ATCC 4807; assay: as above; assay type: cell-based, Trichophyton mentagrophytes
Method: as §1

[6] = 0.2% suspension, 7 days after treatment
[7] = 1.0% suspension, 7 days after treatment

Row | SMILES | fraction of animals in which infection was observed ([1]; 0.2% suspension, 4 days) | fraction of animals in which infection was observed ([1]; 0.2% suspension, 7 days) | fraction of animals in which infection was observed [1, 6] | fraction of animals in which infection was observed ([1]; 1.0% suspension, 4 days) | fraction of animals in which infection was observed ([1]; 1.0% suspension, 7 days) | fraction of animals in which infection was observed [1, 7] | Minimum inhibitory concentrations [2] | Minimum inhibitory concentrations [3] | Minimum inhibitory concentrations [4] | fraction of animals in which infection was observed ([1]; 0.5% suspension, 4 days) | fraction of animals in which infection was observed ([1]; 0.5% suspension, 7 days) | fraction of animals in which infection was observed ([1]; 0.5% suspension, 7 days after treatment) | Minimum inhibitory concentrations [5]
1 | Clc1ccccc1C(c1ccccc1)(c1ccccc1)n1ccnc1 [Clotrimazole, reference compound] | 3/5 | 3/5 | 3/5 | 2/5 | 0/5 | 3/5 | – | – | – | – | – | – | –
2 | CCCN(CCC)CC(C)C[C@H]1CC[C@H](C(C)(C)C)CC1 (stereo partly drawn) [Example 1, trans-3-(4'-tert.-Butylcyclohex-1'-yl)-2-methyl-1-(N-di-n-propylamino)-propane] | 3/5 | 2/5 | 1/5 | 1/5 | 0/5 | 0/5 | < 0.125 | < 0.125 | < 0.125 | 0/5 | 0/5 | 0/5 | < 0.125
3 | CCCN(CC)CC(C)C[C@H]1CC[C@H](C(C)(C)C)CC1 (stereo partly drawn) [Example 2, trans-3-(4'-tert.-Butylcyclohex-1'-yl)-2-methyl-1-(N-ethyl-N-n-propylamino)-propane] | – | – | – | – | – | – | 0.25 | < 0.125 | 1 | – | – | – | 0.25
4 | Cc1cccc(N(C)C(=S)Oc2ccc3ccccc3c2)c1 [Tolnaftate, reference compound] | – | – | – | 0/9 | 0/9 | 2/9 | – | – | – | – | – | – | –
